“And” between values parts separate entries of the source, which are not always exact repeats. Identical values can stand only once.

Results on three compounds are retold here after a compilation of properties of binary mixtures (doi:10.1016/j.fluid.2017.10.015).

This data set is described as follows: xn = mol fraction of the nth substance listed. The following applies: 100 kPa.

As to `O` + CCCCCCCCCCCC[N+]1(C)CCCC1.O=C([O-])c1ccccc1O, the electrical conductivity is 0.0089 S/m and 0.0093 S/m and 0.0105 S/m (298.15 K, x2 = 0); 0.0116 S/m and 0.0126 S/m and 0.0139 S/m (308.15 K, x2 = 0); 0.0153 S/m and 0.0171 S/m (318.15 K, x2 = 0); 0.0172 S/m and 0.0186 S/m and 0.0212 S/m (328.15 K, x2 = 0).
Take `CCCCCCCCCCCC[N+]1(C)CCCC1.O=C([O-])c1ccccc1O` + O: the electrical conductivity is, setting by setting: (298.15 K, x1 = 0.0001) 0.0115 S/m; (308.15 K, x1 = 0.0001) 0.0161 S/m; (318.15 K, x1 = 0.0001) 0.0185 S/m and 0.0235 S/m; (328.15 K, x1 = 0.0001) 0.0231 S/m and 0.0293 S/m.
Regarding `CCCCCCCCCCCC[N+]1(C)CCCCC1.O=C([O-])c1ccccc1O` + O, the electrical conductivity (328.15 K, x1 = 0.0001) is 0.0271 S/m.
